# Test results reported in patent US20100305068A1, “COMPOUNDS AND METHODS FOR MODULATING PROTEIN TRAFFICKING” (priority 2006, published 2010).
# Read-outs that look alike come from different tables or passages of the source.
# Test system: pdr5 ypt1^ts cells
# Experiment: microbe, parasite or virus in culture
# Type: cell-based, yeast
# Details: for optical density, ypt1-ts, 0.39: 0.39 μM compound; for optical density, ypt1-ts, 0.39 / optical density, ypt1-ts, 0.78 / optical density, ypt1-ts, 1.56 / optical density, ypt1-ts, 3.13 / optical density, ypt1-ts, 6.25 / optical density, ypt1-ts, 12.5 / optical density, ypt1-ts, 25: background (0 μM) 0.058; for optical density, ypt1-ts, 0.78: 0.78 μM compound; for optical density, ypt1-ts, 1.56: 1.56 μM compound; for optical density, ypt1-ts, 3.13: 3.13 μM compound; for optical density, ypt1-ts, 6.25: 6.25 μM compound; for optical density, ypt1-ts, 12.5: 12.5 μM compound; for optical density, ypt1-ts, 25: 25 μM compound; for minimal effective concentration: Saccharomyces cerevisiae, read-out: ypt1-ts MRC (minimal rescue concentration)
# From the text: The activity of the compounds as modulators of protein trafficking may be measured in the assays described herein that evaluate the ability of a compound to rescue an impairment in protein trafficking. For example, the yeast mutant cell line ypt1^ts can be used to identify compounds that rescue cells from the lethal phenotype of a mutant YPT1 allele (see, e.g., Examples and Schmitt et al. (1988) Cell 53:635-47). The activity may be measured, for example, in a whole yeast cell assay using 384-well screening protocol and an optical density measurement.
# The yeast mutant cell line ypt1^ts suppresses, in a temperature dependent fashion, the dominant-lethal phenotype of a mutant YPT1 allele (Schmitt et al. (1988) Cell 53:635-47). ypt1^ts cells grow normally at temperatures up to 30° C., but are growth arrested at 37° C. (Id.).
# A library of compounds (“The Spectrum Collection”) obtained from Microsource Discovery Systems, Inc. (Gaylordsville, Conn.) was screened to assess the ability of individual compounds to restore growth of ypt1^ts cells. Screening was carried out using ypt1^ts cells containing a mutation in the pdr5 gene (resulting in inactivation of a membrane efflux pump). The effect of the compounds was measured in pdr5 ypt1^ts cells cultured at 37° C.
# [1] = Table 3, 3.13 uM compound, 37° C., background (0 uM) 0.077
# [2] = Table 3, 12.5 uM compound, 37° C., background (0 uM) 0.077
# [3] = Table 3, 50 uM compound, 37° C., background (0 uM) 0.077
# [4] = Table 2, lowest concentration tested giving growth above the 0 μM background, 37° C.
Molecule,"optical density, ypt1-ts, 0.39 (Table 2, 37° C.)","optical density, ypt1-ts, 0.78 (Table 2, 37° C.)","optical density, ypt1-ts, 1.56 (Table 2, 37° C.)","optical density, ypt1-ts, 3.13 (Table 2, 37° C.)","optical density, ypt1-ts, 6.25 (Table 2, 37° C.)","optical density, ypt1-ts, 12.5 (Table 2, 37° C.)","optical density, ypt1-ts, 25 (Table 2, 37° C.)","optical density, 3.13 uM [1]","optical density, 12.5 uM [2]","optical density, 50 uM [3]",minimal effective concentration [4] [µM],further results
COC(=O)[C@]1(C)CC[C@]2(C)CC[C@]3(C)C4=CC=C5C(=CC(=O)C(O)=C5C)[C@]4(C)CC[C@@]3(C)[C@@H]2C1 [PRISTIMERIN],0.534,0.332,0.669,0.703,0.68,0.676,0.677,–,–,–,–,–
"COc1ccc(-c2coc3c(OC)c(O)ccc3c2=O)cc1 [7-HYDROXY- 8,4′-DIMETH- OXYISO- FLAVONE]",–,–,–,–,–,–,–,0.121,0.151,0.398,–,–
"COc1ccc2cc([C@H](C)C(=O)O)ccc2c1 [(+)NAPROXEN, reference compound]",–,–,–,–,–,–,–,–,–,–,–,minimal effective concentration: 25 µM
CNC(=O)Oc1cccc2c1OC(C)(C)C2 [CARBO- FURAN],–,–,–,–,–,–,–,0.176,0.264,0.239,–,–
CC(C)OC(=O)Nc1cccc(Cl)c1 [CHLORPROPHAM],0.086,0.072,0.081,0.09,0.096,0.101,0.145,–,–,–,25,–
COc1ccc2c(c1)O[C@H]1c3ccc(OC)cc3OC[C@@H]21 [HOMOPTEROCARPIN],0.083,0.064,0.065,0.071,0.09,0.117,0.44,–,–,–,25,–
C/C=C(\C)C(=O)O[C@@H]1c2c(ccc3ccc(=O)oc23)OC(C)(C)[C@@H]1OC(C)=O [PTERYXIN],0.103,0.078,0.096,0.124,0.134,0.26,0.479,–,–,–,6.25,–
NIMESULIDE [reference compound],–,–,–,–,–,–,–,–,–,–,–,"optical density, 3.13 uM: 0.098; optical density, 12.5 uM: 0.147; optical density, 50 uM: 0.539"
"COc1ccc(-c2coc3cc(OC)ccc3c2=O)cc1 [7,4′- DIMETH- OXYISO- FLAVONE]",–,–,–,–,–,–,–,0.222,0.551,0.513,–,–
"CC(=O)[C@H]1CC[C@H]2[C@@H]3CCC4=CC(=O)CC[C@]4(C)[C@H]3CC[C@]12C [PROGESTERONE, reference compound]",0.089,0.083,0.091,0.098,0.12,0.15,0.316,–,–,–,12.5,–
"CC(=O)O[C@]1(C(C)=O)CC[C@H]2[C@@H]3C=C(C)C4=CC(=O)CC[C@]4(C)[C@H]3CC[C@@]21C [MEGESTROL ACETATE, reference compound]",–,–,–,–,–,–,–,0.222,0.341,0.202,–,–
O=C(/C=C/C=C/c1ccc2c(c1)OCO2)N1CCCCC1 [PIPERINE],–,–,–,–,–,–,–,0.107,0.135,0.377,–,–
COc1ccc(CC(=O)c2ccc(O)cc2O)cc1 [ONONETIN],0.097,0.08,0.096,0.111,0.14,0.3,0.618,–,–,–,6.25,–
"CC1(C)C(=O)C=C[C@]2(C)[C@H]3CC[C@@]4(C)[C@H](c5ccoc5)OC(=O)[C@H]5O[C@]54[C@]3(C)C=C[C@@H]12 [7-DESACETOXY-6,7- DEHYDROGEDUNIN]",0.094,0.071,0.074,0.093,0.099,0.171,0.308,–,–,–,12.5,–
"Cl.Clc1cccc(Cl)c1N=C1NCCN1 [CLONIDINE HYDRO- CHLORIDE, reference compound]",–,–,–,–,–,–,–,–,–,–,–,"optical density, 3.13 uM: 0.237; optical density, 12.5 uM: 0.095; optical density, 50 uM: 0.064"
"COc1ccc2c(c1OC)OC[C@@H](c1ccc(OC)c(OC)c1OC)C2 [DUARTIN, DIMETHYL ETHER]",0.166,0.092,0.111,0.14,0.239,0.287,0.474,–,–,–,3.13,–
C#CCCCCCCCCCCCC(=O)CC(O)COC(C)=O (centres unmarked) [AVO- CADYNONE ACETATE],–,–,–,–,–,–,–,0.126,0.275,0.057,–,–
CC1=CC(=O)[C@H]2C(C)(C)CCC[C@]2(C)[C@@]1(O)CCc1ccoc1 [SOLIDAGENONE],0.092,0.077,0.086,0.11,0.141,0.439,0.62,–,–,–,6.25,–
CCCSP(=O)(OCC)SCCC [ETHOPROP],–,–,–,–,–,–,–,–,–,–,–,"optical density, 3.13 uM: 0.118; optical density, 12.5 uM: 0.134; optical density, 50 uM: 0.251"
CCCc1occc(=O)c1/C=C/O [2-PROPYL-3- HYDRO[…]-4-ONE],0.091,0.079,0.083,0.092,0.088,0.104,0.126,–,–,–,25,–
CCc1cccc(CC)c1N(COC)C(=O)CCl [ALACHLOR],–,–,–,–,–,–,–,0.101,0.142,0.45,–,–
COc1c2c(cc3c1OCO3)[C@]13C=C[C@H](OC)C[C@H]1N(C2)C[C@@H]3O [AMBELLINE],–,–,–,–,–,–,–,0.071,0.302,0.057,–,–
"C/C=C(/C(=C/C)c1ccc(O)cc1)c1ccc(O)cc1 [DIENESTROL, reference compound]",–,–,–,–,–,–,–,0.142,0.309,0.044,–,–
"C[C@]12CC[C@@H](O)C[C@H]1CCc1ccccc12 [3alpha- HYDROXY-4,4- BISNOR- 8,11,13- PODO- […]]",–,–,–,–,–,–,–,0.074,0.104,0.408,–,–
